US11981658B2, “Substituted aminopyridine compounds as EGFR inhibitors” (YUHAN CORPORATION, priority 2021, dated 2024)
Where two headings read alike, the source gives them in different places.

What was measured:
[1] = molecular target: EGFR L858R/T790M/C797S (Homo sapiens, UniProt P00533, C797S/L858R/T790M); experiment: Biochemical EGFR kinase inhibition assay (Lance Ultra TR-FRET), triple mutant L858R/T790M/C797S
How it was run: (§1)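 Step 1: compound in kinase buffer, 0.003–10 μM. Step 2: kinase reaction 1 h at room temperature. Step 4: TR-FRET read at 615/665 nm; IC50 calculated.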

[2] = molecular target: EGFR Del19/T790M/C797S (Homo sapiens, UniProt P00533, C797S/DEL746-750/T790M); experiment: Biochemical EGFR kinase inhibition assay (Lance Ultra TR-FRET), triple mutant del19/T790M/C797S
EGFR Del19/T790M/C797S, sequence (P00533 with tags, fused parts or gaps DEL746-750/T790M/C797S): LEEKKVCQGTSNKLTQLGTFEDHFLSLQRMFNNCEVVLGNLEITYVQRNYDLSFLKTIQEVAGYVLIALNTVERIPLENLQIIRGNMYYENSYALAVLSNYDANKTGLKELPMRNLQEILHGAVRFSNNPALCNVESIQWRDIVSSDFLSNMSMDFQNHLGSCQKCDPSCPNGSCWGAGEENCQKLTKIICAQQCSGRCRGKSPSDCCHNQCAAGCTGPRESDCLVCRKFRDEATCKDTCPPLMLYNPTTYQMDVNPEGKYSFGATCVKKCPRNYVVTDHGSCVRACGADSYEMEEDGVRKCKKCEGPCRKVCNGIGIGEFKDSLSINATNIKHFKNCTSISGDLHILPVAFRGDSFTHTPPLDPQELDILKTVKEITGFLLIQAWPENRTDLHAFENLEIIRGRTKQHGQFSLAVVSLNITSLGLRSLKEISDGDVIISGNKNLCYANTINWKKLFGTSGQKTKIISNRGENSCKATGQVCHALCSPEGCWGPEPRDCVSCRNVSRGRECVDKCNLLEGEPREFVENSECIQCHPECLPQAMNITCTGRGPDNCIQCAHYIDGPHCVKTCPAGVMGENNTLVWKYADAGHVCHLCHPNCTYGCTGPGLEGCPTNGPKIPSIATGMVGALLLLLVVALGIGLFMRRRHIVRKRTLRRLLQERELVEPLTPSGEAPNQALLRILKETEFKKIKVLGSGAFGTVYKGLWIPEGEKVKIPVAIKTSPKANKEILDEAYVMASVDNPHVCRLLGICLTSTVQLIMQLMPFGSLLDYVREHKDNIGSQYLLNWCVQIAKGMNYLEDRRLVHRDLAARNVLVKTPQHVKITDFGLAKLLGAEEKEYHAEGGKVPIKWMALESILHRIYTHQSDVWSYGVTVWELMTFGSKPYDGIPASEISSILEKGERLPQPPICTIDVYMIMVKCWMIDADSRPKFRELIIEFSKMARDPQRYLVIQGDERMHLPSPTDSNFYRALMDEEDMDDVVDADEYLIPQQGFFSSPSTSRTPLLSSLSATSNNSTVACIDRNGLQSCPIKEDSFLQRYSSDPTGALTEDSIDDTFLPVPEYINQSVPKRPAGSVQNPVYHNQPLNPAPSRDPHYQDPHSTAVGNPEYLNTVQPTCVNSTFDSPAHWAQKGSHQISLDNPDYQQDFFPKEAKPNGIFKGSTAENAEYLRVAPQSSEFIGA
How it was run: as §1

[3] = molecular target: EGFR L858R/C797S (Homo sapiens, UniProt P00533, C797S/L858R); experiment: Biochemical EGFR kinase inhibition assay (Lance Ultra TR-FRET), double mutant L858R/C797S
EGFR L858R/C797S, sequence (P00533 25-1210 C797S/L858R): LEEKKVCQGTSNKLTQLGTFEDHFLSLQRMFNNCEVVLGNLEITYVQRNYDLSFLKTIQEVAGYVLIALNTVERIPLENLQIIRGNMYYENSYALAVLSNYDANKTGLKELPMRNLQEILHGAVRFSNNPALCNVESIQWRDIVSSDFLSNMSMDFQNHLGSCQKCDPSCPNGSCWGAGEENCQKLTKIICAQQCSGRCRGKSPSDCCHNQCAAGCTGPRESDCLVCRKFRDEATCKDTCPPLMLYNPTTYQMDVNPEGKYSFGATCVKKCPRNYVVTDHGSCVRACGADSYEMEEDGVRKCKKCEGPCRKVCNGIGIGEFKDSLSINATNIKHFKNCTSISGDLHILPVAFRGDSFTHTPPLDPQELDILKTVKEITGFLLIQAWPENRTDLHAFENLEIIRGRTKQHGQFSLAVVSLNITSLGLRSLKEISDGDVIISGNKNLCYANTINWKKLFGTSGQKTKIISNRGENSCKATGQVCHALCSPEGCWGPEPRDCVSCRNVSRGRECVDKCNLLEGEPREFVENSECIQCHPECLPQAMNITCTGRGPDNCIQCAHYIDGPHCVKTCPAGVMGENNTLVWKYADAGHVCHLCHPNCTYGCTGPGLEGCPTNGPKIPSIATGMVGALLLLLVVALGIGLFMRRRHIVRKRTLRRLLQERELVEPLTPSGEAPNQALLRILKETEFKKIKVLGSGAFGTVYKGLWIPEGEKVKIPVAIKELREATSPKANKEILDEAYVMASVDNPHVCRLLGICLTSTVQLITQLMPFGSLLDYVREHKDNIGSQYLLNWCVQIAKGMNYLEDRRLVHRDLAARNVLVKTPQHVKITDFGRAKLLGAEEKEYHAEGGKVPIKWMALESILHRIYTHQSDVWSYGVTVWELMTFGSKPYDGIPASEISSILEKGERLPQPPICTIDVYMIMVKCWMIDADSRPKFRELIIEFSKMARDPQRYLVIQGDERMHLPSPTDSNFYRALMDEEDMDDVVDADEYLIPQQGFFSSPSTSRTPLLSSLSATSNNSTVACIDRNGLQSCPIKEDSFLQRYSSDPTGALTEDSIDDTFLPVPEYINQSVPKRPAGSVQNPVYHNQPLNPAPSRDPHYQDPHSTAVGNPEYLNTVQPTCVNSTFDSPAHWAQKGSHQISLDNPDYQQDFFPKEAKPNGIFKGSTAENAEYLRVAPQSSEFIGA
How it was run: as §1

[4] = molecular target: EGFR Del19/C797S (Homo sapiens, UniProt P00533, C797S/DEL746-750); experiment: Biochemical EGFR kinase inhibition assay (Lance Ultra TR-FRET), double mutant del19/C797S
How it was run: as §1

[5] = molecular target: EGFR wildtype (WT) (Homo sapiens, UniProt P00533); experiment: Biochemical EGFR kinase inhibition assay (Lance Ultra TR-FRET), wildtype
EGFR wildtype (WT), sequence (P00533 25-1210): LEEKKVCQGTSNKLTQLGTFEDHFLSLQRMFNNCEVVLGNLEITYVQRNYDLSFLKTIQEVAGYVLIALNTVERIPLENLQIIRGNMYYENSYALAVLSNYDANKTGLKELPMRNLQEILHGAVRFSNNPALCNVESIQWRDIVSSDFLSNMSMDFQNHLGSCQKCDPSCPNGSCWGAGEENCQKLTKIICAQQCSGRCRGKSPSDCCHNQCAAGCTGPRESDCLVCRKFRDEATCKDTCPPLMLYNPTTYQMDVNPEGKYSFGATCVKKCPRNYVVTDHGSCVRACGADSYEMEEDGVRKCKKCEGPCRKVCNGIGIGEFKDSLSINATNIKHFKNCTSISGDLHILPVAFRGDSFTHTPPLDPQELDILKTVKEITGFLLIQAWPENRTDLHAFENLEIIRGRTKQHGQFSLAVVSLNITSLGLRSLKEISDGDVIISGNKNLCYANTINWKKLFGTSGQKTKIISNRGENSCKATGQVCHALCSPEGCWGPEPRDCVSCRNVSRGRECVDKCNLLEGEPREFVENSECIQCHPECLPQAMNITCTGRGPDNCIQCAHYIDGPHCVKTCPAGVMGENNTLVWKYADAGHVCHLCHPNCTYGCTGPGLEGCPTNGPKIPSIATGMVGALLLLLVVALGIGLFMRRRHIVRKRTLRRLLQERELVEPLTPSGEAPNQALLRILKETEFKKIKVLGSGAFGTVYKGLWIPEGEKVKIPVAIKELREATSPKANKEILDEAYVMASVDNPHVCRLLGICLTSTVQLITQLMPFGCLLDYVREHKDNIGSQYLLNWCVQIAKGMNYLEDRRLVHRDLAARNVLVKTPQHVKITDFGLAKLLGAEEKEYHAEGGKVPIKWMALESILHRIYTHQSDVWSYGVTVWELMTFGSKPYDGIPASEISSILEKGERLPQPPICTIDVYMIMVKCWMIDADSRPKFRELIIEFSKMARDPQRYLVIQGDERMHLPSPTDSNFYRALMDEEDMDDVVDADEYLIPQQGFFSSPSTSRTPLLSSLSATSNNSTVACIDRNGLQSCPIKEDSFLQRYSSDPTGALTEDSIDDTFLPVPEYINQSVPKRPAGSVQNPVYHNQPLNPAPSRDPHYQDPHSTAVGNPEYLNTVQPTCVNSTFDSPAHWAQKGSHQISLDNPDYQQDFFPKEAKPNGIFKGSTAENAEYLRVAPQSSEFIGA
How it was run: as §1

[6] = IC50 L858R/T790M/C797S (nM), 100 μM ATP
[7] = Km ATP, read-out: IC50 L858R/T790M/C797S (nM), Km ATP
[8] = IC50 Del19/T790M/C797S (nM), 100 μM ATP
[9] = Km ATP, read-out: IC50 Del19/T790M/C797S (nM), Km ATP
[10] = IC50 L858R/C797S (nM), 100 μM ATP
[11] = Km ATP, read-out: IC50 L858R/C797S (nM), Km ATP
[12] = IC50 Del19/C797S (nM), 100 μM ATP
[13] = Km ATP, read-out: IC50 Del19/C797S (nM), Km ATP
[14] = Km ATP, read-out: IC50 WT (nM), Km ATP
[15] = ATP at Km, read-out: IC50 L858R/T790M/C797S (nM), Km ATP
[16] = ATP at Km, read-out: IC50 Del19/T790M/C797S (nM), Km ATP
[17] = ATP at Km, read-out: IC50 L858R/C797S (nM), Km ATP
[18] = ATP at Km, read-out: IC50 Del19/C797S (nM), Km ATP
[19] = ATP at Km, read-out: IC50 WT (nM), Km ATP
[20] = Km ATP, read-out: IC50 L858R/T790M/C797S (nM) Km ATP
[21] = Km ATP, read-out: IC50 Del19/T790M/C797S (nM) Km ATP
[22] = Km ATP, read-out: IC50 L858R/C797S (nM) Km ATP
[23] = Km ATP, read-out: IC50 Del19/C797S (nM) Km ATP
[24] = Km ATP, read-out: IC50 WT (nM) Km ATP

EGFR L858R/T790M/C797S, sequence (P00533 25-1210 T790M/C797S/L858R): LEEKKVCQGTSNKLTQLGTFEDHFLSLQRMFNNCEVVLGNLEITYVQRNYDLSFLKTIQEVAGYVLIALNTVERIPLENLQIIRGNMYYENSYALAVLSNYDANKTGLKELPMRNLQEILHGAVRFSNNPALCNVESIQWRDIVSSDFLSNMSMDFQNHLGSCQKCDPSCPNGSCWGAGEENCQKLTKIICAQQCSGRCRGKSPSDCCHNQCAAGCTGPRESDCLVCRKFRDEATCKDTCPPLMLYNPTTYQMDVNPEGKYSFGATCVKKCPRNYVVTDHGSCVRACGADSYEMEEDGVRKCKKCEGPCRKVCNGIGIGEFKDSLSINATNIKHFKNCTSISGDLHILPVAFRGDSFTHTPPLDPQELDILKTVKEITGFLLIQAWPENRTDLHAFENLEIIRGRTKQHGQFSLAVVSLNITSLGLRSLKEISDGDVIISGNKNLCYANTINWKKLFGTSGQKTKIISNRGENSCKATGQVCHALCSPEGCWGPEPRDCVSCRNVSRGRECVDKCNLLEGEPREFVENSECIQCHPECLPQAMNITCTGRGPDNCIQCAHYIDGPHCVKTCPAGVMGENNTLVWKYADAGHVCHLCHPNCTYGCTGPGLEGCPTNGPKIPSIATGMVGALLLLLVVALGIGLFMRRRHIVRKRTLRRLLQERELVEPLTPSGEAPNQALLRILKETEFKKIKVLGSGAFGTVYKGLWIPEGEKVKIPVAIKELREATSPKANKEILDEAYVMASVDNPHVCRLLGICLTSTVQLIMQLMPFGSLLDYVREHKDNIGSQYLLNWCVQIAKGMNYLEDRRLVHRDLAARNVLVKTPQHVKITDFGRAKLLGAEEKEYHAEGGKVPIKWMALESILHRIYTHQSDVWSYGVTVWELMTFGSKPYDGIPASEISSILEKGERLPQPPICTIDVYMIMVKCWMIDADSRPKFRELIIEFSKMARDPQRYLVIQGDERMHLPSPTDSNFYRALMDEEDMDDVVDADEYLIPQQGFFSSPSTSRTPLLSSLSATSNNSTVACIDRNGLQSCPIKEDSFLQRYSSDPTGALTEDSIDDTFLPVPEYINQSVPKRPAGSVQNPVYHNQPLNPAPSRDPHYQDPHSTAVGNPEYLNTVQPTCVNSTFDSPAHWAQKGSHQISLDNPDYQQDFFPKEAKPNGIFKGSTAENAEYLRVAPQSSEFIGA

Row | IC50 [1, 6] [nM] | IC50 [1, 7] [nM] | IC50 [2, 8] [nM] | IC50 [2, 9] [nM] | IC50 [3, 10] [nM] | IC50 [3, 11] [nM] | IC50 [4, 12] [nM] | IC50 [4, 13] [nM] | IC50 ([5]; IC50 WT (nM), 100 μM ATP) [nM] | IC50 [5, 14] [nM] | IC50 [1, 15] [nM] | IC50 [2, 16] [nM] | IC50 [3, 17] [nM] | IC50 [4, 18] [nM] | IC50 [5, 19] [nM] | IC50 [1, 20] [nM] | IC50 [2, 21] [nM] | IC50 [3, 22] [nM] | IC50 [4, 23] [nM] | IC50 [5, 24] [nM] | SMILES
1 | 0.4 | 0.3 | 0.4 | 0.9 | 6.4 | 2.4 | 2 | 1.9 | 1200 | 3.1 | – | – | – | – | – | – | – | – | – | – | COC1(O)CCN(c2cc(Nc3ccnc(-c4cnn(S(=O)(=O)C5CC5)c4)n3)ncc2C#Cc2ccc(CN3CCN(C)CC3)cc2)CC1 [Example 369, 1-(2-((2-(1-(Cyclopropylsulfonyl)-1H-pyrazol-4-yl)pyrimidin-4-yl)amino)-5-((4-((4-methylpiperazin-1-yl)methyl)phenyl)ethynyl)pyridin-4-yl)-4-methoxypiperidin-4-ol]
2 | 0.3 | – | 0.3 | – | 11.5 | – | 0.7 | – | 2690 | – | 0.1 | 0.1 | 1.5 | 0.8 | 5 | – | – | – | – | – | CN(C)CC1(C)CCN(c2cc(Nc3ccnc(-c4cnn(S(=O)(=O)C5CC5)c4)n3)ncc2C#Cc2cnn(CC(F)F)c2)CC1 [Example 302, 2-(1-(Cyclopropylsulfonyl)-1H-pyrazol-4-yl)-N-(5-((1-(2,2-difluoroethyl)-1H-pyrazol-4-yl)ethynyl)-4-(4-((dimethylamino)methyl)-4-methylpiperidin-1-yl)pyridin-2-yl)pyrimidin-4-amine]
3 | 3.9 | – | 2.6 | – | 104 | 3.9 | 8.4 | 7.9 | > 10000 | 62.7 | – | – | – | – | – | – | – | – | – | – | CC1(C#Cc2cnc(Nc3ccnc(-c4cnn(S(=O)(=O)C5CC5)c4)n3)cc2N[C@H]2CC[C@@H](CO)CC2)CC1 [Example 402, ((1s,4s)-4-((2-((2-(1-(Cyclopropylsulfonyl)-1H-pyrazol-4-yl)pyrimidin-4-yl)amino)-5-((1-methylcyclopropyl)ethynyl)pyridin-4-yl)amino)cyclohexyl)methanol]
4 | 3.9 | – | 0.4 | – | 24.1 | – | 1.8 | – | 5190 | – | – | – | – | – | – | – | – | – | – | – | O=C(N1CCC(C#Cc2cnc(Nc3ccnc(-c4cnn(S(=O)(=O)C5CC5)c4)n3)cc2NC2CCC(O)CC2)C1)C(F)(F)F (stereo not shown) [Example 414, 1-(3-((6-((2-(1-(Cyclopropylsulfonyl)-1H-pyrazol-4-yl)pyrimidin-4-yl)amino)-4-(((1 s, 4s)-4-hydroxycyclohexyl)amino)pyridin-3-yl)ethynyl)pyrrolidin-1-yl)-2,2,2-trifluoroethan-1-one]
5 | 1.5 | 0.3 | 1.5 | 0.9 | 549 | – | 10.2 | – | > 10000 | – | – | – | – | – | – | – | – | – | – | – | O=C(c1ccc(C#Cc2cnc(Nc3ccnc(-c4cnn(S(=O)(=O)C5CC5)c4)n3)cc2N2CCC[C@@H](O)C2)cc1)N1CCC(O)CC1 [Example 444, (R)-(4-((6-((2-(1-(Cyclopropylsulfonyl)-1H-pyrazol-4-yl)pyrimidin-4-yl)amino)-4-(3-hydroxypiperidin-1-yl)pyridin-3-yl)ethynyl)phenyl)(4-hydroxypiperidin-1-yl)methanone]

More lines, now with the values behind:

Row | SMILES | IC50 [1, 6] [nM] | IC50 [1, 7] [nM] | IC50 [2, 8] [nM] | IC50 [2, 9] [nM] | IC50 [3, 10] [nM] | IC50 [3, 11] [nM] | IC50 [4, 12] [nM] | IC50 [4, 13] [nM] | IC50 ([5]; IC50 WT (nM), 100 μM ATP) [nM] | IC50 [5, 14] [nM] | IC50 [1, 15] [nM] | IC50 [2, 16] [nM] | IC50 [3, 17] [nM] | IC50 [4, 18] [nM] | IC50 [5, 19] [nM] | IC50 [1, 20] [nM] | IC50 [2, 21] [nM] | IC50 [3, 22] [nM] | IC50 [4, 23] [nM] | IC50 [5, 24] [nM]
6 | CC1(CO)CCN(c2cc(Nc3ccnc(-c4cnn(S(C)(=O)=O)c4)n3)ncc2C#Cc2cnn(C(F)(F)F)c2)CC1 [Example 268, (4-Methyl-1-(2-((2-(1-(methylsulfonyl)-1H-pyrazol-4-yl)pyrimidin-4-yl)amino)-5-((1-(trifluoromethyl)-1H-pyrazol-4-yl)ethynyl)pyridin-4-yl)piperidin-4-yl)methanol] | 2.9 | – | 6.2 | – | 116 | – | 59.6 | – | > 10000 | – | 1 | 2.4 | 41.8 | 26.6 | 105 | – | – | – | – | –
7 | CNC1CCN(c2cc(Nc3ccnc(-c4cnn(S(=O)(=O)C5CC5)c4)n3)ncc2C#Cc2ccn(C)n2)CC1 [Example 140, 2-(1-(Cyclopropylsulfonyl)-1H-pyrazol-4-yl)-N-(5-((1-methyl-1H-pyrazol-3-yl)ethynyl)-4-(4-(methylamino)piperidin-1-yl)pyridin-2-yl)pyrimidin-4-amine] | 6.4 | – | 1.8 | – | 887 | – | 176 | – | > 10000 | – | – | – | – | – | – | 1.3 | 1.3 | 23.2 | 114 | 622
8 | O=S(=O)(C1CC1)n1cc(-c2nccc(Nc3cc(N[C@H]4CC[C@@H](O)CC4)c(C#Cc4cnn(C(F)(F)F)c4)cn3)n2)cn1 [Example 102, (1s,4s)-4-((2-((2-(1-(Cyclopropylsulfonyl)-1H-pyrazol-4-yl)pyrimidin-4-yl)amino)-5-((1-(trifluoromethyl)-1H-pyrazol-4-yl)ethynyl)pyridin-4-yl)amino)cyclohexan-1-ol] | 7.6 | – | 2.7 | – | 1030 | – | 26.6 | – | > 10000 | – | – | – | – | – | – | 2.1 | 2.8 | 15.7 | 13.9 | 186
9 | CC(=O)N1CCC(n2cc(C#Cc3cnc(Nc4ccnc(-c5cnn(S(=O)(=O)C6CC6)c5)n4)cc3N3CCCC(CO)C3)cn2)CC1 (stereo not shown) [Example 115, 1-(4-(4-((6-((2-(1-(Cyclopropylsulfonyl)-1H-pyrazol-4-yl)pyrimidin-4-yl)amino)-4-(3-(hydroxymethyl)piperidin-1-yl)pyridin-3-yl)ethynyl)-1H-pyrazol-1-yl)piperidin-1-yl)ethan-1-one] | 2.3 | – | 1.2 | – | 15.6 | – | 8.1 | – | > 10000 | – | – | – | – | – | – | 0.9 | 0.9 | 2.9 | 5.4 | 19.6
10 | C=CC#Cc1cnc(Nc2ccnc(-c3cnn(S(=O)(=O)C4CC4)c3)n2)cc1N1CCC(C)(CO)CC1 [Example 277, (1-(5-(But-3-en-1-yn-1-yl)-2-((2-(1-(cyclopropylsulfonyl)-1H-pyrazol-4-yl)pyrimidin-4-yl)amino)pyridin-4-yl)-4-methylpiperidin-4-yl)methanol] | 1.8 | – | 0.8 | – | 33.7 | – | 3.3 | – | > 10000 | – | 0.3 | 0.6 | 2.5 | 1.4 | 11.4 | – | – | – | – | –
11 | CC1(CO)CCN(c2cc(Nc3ccnc(-c4cnn(S(=O)(=O)C5CC5)c4)n3)ncc2C#CC2(O)CCCC2)CC1 [Example 177, 1-((6-((2-(1-(Cyclopropylsulfonyl)-1H-pyrazol-4-yl)pyrimidin-4-yl)amino)-4-(4-(hydroxymethyl)-4-methylpiperidin-1-yl)pyridin-3-yl)ethynyl)cyclopentan-1-ol] | 0.7 | – | 0.5 | – | 66.5 | – | 2.5 | – | 4870 | – | 0.4 | 0.6 | 7.5 | 2 | 17.7 | – | – | – | – | –
